Assay results as given in patent US8143257B2, “Substituted phenols as active agents inhibiting VEGF production” (PTC Therapeutics, Inc., priority 2004, dated 2012).

tested on: hypoxia-inducible endogenous VEGF expression; assay: Assay to evaluate effect on hypoxia-inducible endogenous VEGF expression (VEGF ELISA, HeLa cells); assay type: cell-based; details: HeLa cells cultured 24-48 hours under hypoxic conditions (1% O2, 5% CO2); VEGF in conditioned media by ELISA; read-out: ELISA EC50 (effective concentration required to lower the amount of VEGF translation by 50%)
Procedure: Assay to Evaluate Effect on Hypoxia-Inducible Endogenous VEGF Expression
The ability of the compounds of the invention to modulate hypoxia-inducible endogenous VEGF expression is analyzed as follows. VEGF protein levels are monitored by an ELISA assay (R&D Systems). Briefly, HeLa cells are cultured for 24-48 hours under hypoxic conditions (1% O2, 5% CO2, balanced with nitrogen) in the presence or absence of a compound of the invention. The conditioned media is then assayed by ELISA, and the concentration of VEGF is calculated from the standard ELISA curve of each assay.
A dose-response analysis is performed using the ELISA assay and conditions described above. A series of, e.g., seven different concentrations are analyzed. In parallel, a dose-response cytotoxicity assay is performed using Cell Titer Glo (Promega) under the same conditions as the ELISA to ensure that the inhibition of VEGF expression is not due to the cytotoxicity. Dose-response curves are plotted using percentage inhibition versus concentration of the compound, and EC50 and CC50 values are generated for each compound with the maximal inhibition set as 100% and the minimal inhibition as 0%.
The most preferred compounds of the invention are those with μM values of 3 or less.

SMILES | EC50
Cc1ccc2cc(OC(=O)N3CC(C)CC(C)C3)ccc2n1 (centres unmarked) [3,5-Dimethyl-piperidine-1-carboxylic acid 2-methyl-quinolin-6-yl ester] | > 30 µM
O=C(Oc1ccccc1Br)N1CCCC1 [Pyrrolidine-1-carboxylic acid 2-bromo-phenyl ester] | > 30 µM
CC1CCCC(C)N1C(=O)Oc1ccccc1Br (centres unmarked) [2,6-Dimethyl-piperidine-1-carboxylic acid 2-bromo-phenyl ester] | > 30 µM
Cc1ccc(OC(=O)N2C(C)CCCC2C)c(Br)c1 (centres unmarked) [2,6-Dimethyl-piperidine-1-carboxylic acid 2-bromo-4-methyl-phenyl ester] | > 30 µM

same assay, conditions: Homo sapiens, HeLa, read-out: ELISA EC50 (effective concentration required to lower the amount of VEGF translation by 50%)

SMILES | EC50
Cc1ccc2cc(OC(=O)N3CCCCC3C)ccc2n1 (centres unmarked) [2-Methyl-piperidine-1-carboxylic acid 2-methyl-quinolin-6-yl ester] | > 30 µM
CN(C)C(=O)Oc1ccc2cc(Br)ccc2c1 [Dimethyl-carbamic acid 6-bromo-naphthalen-2-yl ester] | > 10 µM
CC(=O)c1c(OC(=O)N2CCCN(C)CC2)ccc2ccccc12 [4-Methyl-[1,4]diazepane-1-carboxylic acid 1-acetyl-naphthalen-2-yl ester] | > 30 µM
CN1CCCN(C(=O)Oc2ccccc2Br)CC1 [4-Methyl-[1,4]diazepane-1-carboxylic acid 2-bromo-phenyl ester] | > 30 µM
CN1CCN(C(=O)Oc2c(Cl)cc(Cl)cc2Cl)CC1 [4-Methyl-piperazine-1-carboxylic acid 2,4,6-trichloro-phenyl ester] | 14.2 µM
CN1CCN(C(=O)Oc2cc(Cl)c(Cl)cc2Cl)CC1 [4-Methyl-piperazine-1-carboxylic acid 2,4,5-trichloro-phenyl ester] | > 30 µM
CC1CC(C)CN(C(=O)Oc2cc3ccccc3cn2)C1 (centres unmarked) [3,5-Dimethyl-piperidine-1-carboxylic acid isoquinolin-3-yl ester] | > 30 µM

same assay, conditions: Homo sapiens; HeLa cells cultured 24-48 hours under hypoxic conditions (1% O2, 5% CO2); VEGF in conditioned media by ELISA; read-out: ELISA EC50 (effective concentration required to lower the amount of VEGF translation by 50%)

EC50 | SMILES
> 10 µM | CC1CC(C)CN(C(=O)Nc2ccc3ccccc3c2Cl)C1 (centres unmarked) [3,5-Dimethyl-piperidine-1-carboxylic acid (1-chloro-naphthalen-2-yl)-amide]
> 30 µM | O=C(Oc1cc2ccccc2cn1)N1CCCCC1 [Piperidine-1-carboxylic acid isoquinolin-3-yl ester]
> 30 µM | O=C(Oc1c(Cl)cc(Cl)cc1Cl)N1CCc2ccccc21 [2,3-Dihydro-indole-1-carboxylic acid 2,4,6-trichloro-phenyl ester]
> 30 µM | Cc1ccc2cc(OC(=O)N3CCc4ccccc4C3)ccc2n1 [3,4-Dihydro-1H-isoquinoline-2-carboxylic acid 2-methyl-quinolin-6-yl ester]
> 5 µM | CS(=O)(=O)Nc1c(O)ccc2ccccc12 [N-(2-Hydroxy-naphthalen-1-yl)-methanesulfonamide]
10.6 µM | CC1CCCCN1C(=O)Oc1cc(Cl)c(Cl)cc1Cl (centres unmarked) [2-Methyl-piperidine-1-carboxylic acid 2,4,5-trichloro-phenyl ester]
> 30 µM | O=C(Oc1c(Cl)cc(Cl)cc1Cl)N1CCc2ccccc2C1 [3,4-Dihydro-1H-isoquinoline-2-carboxylic acid 2,4,6-trichloro-phenyl ester]
> 30 µM | Cc1ccc2cc(OC(=O)N3CCN(c4ccccc4)CC3)ccc2n1 [4-Phenyl-piperazine-1-carboxylic acid 2-methyl-quionolin-6-yl ester]
2.6 µM | CC(=O)c1c(OC(=O)N2CCC(Cc3ccccc3)CC2)ccc2ccccc12 [4-Benzyl-piperidine-1-carboxylic acid 1-acetyl-naphthalen-2-yl ester]
> 10 µM | O=C(Nc1ccc2ccccc2c1Cl)N1CCC(Cc2ccccc2)CC1 [4-Benzyl-piperidine-1-carboxylic acid (1-chloro-naphthalen-2-yl)-amide]
0.22 µM | O=C(Nc1ccc2ccccc2c1Br)N1CCC(C(O)(c2ccccc2)c2ccccc2)CC1 [4-(Hydroxy-diphenyl-methyl)-piperidine-1-carboxylic acid (1-bromo-naphthalen-2-yl)-amide]
> 30 µM | O=C(Oc1cc2ccccc2cn1)N1CCCc2ccccc21 [3,4-Dihydro-2H-quinoline-1-carboxylic acid isoquinolin-3-yl ester]
> 10 µM | O=C(Nc1ccc2ccccc2c1Cl)N1CCN(c2ccc(Cl)cc2)CC1 [4-(4-Chloro-phenyl)-piperazine-1-carboxylic acid (1-chloro-naphthalen-2-yl)-amide]
0.999 µM | O=C(Oc1ccc2ccccc2c1Br)N1CCOCC1 [Morpholine-4-carboxylic acid 1-bromo-naphthalen-2-yl ester]
> 30 µM | O=C(Oc1cc2ccccc2cn1)N1CCCC1 [Pyrrolidine-1-carboxylic acid isoquinolin-3-yl ester]
> 30 µM | CC1CCN(C(=O)Oc2c(Cl)cc(Cl)cc2Cl)CC1 [4-Methyl-piperidine-1-carboxylic acid 2,4,6-trichloro-phenyl ester]
> 5 µM | CS(=O)(=O)Nc1c(OC(=O)N2CCN(c3ccccc3)CC2)ccc2ccccc12 [4-Phenyl-piperazine-1-carboxylic acid 1-methanesulfonylamino-naphthalen-2-yl ester]
> 30 µM | CC1CCCC(C)N1C(=O)Oc1c(Cl)cc(Cl)cc1Cl (centres unmarked) [2,6-Dimethyl-piperidine-1-carboxylic acid 2,4,6-trichloro-phenyl ester]

EC50 | SMILES
4.3 µM | CS(=O)(=O)Nc1c(OC(=O)Oc2ccc3ccccc3c2NS(C)(=O)=O)ccc2ccccc12 [Carbonic acid bis-(1-methanesulfonylamino-naphthalen-2-yl) ester]
> 30 µM | O=C(Oc1cc(Cl)c(Cl)cc1Cl)N1CCc2ccccc21 [2,3-Dihydro-indole-1-carboxylic acid 2,4,5-trichloro-phenyl ester]
> 30 µM | CC1CCCC(C)N1C(=O)Oc1cc2ccccc2cn1 (centres unmarked) [2,6-Dimethyl-piperidine-1-carboxylic acid isoquinolin-3-yl ester]
0.129 µM | CC1CC(C)CN(C(=O)Oc2ccc3ccccc3c2Br)C1 (centres unmarked) [3,5-Dimethyl-piperidine-1-carboxylic acid 1-bromo-naphthalen-2-yl ester]
2.22 µM | O=C(Oc1ncc2ccccc2c1Cl)N1CCCCC1 [Piperidine-1-carboxylic acid 4-chloro-isoquinolin-3-yl ester]
11.2 µM | O=C(Oc1cc(Cl)c(Cl)cc1Cl)N1CCCc2ccccc21 [3,4-Dihydro-2H-quinoline-1-carboxylic acid 2,4,5-trichloro-phenyl ester]
> 30 µM | Cc1ccc2cc(OC(=O)N3CCc4ccccc43)ccc2n1 [2,3-Dihydro-indole-1-carboxylic acid 2-methyl-quinolin-6-yl ester]
> 10 µM | O=C(Nc1ccc2ccccc2c1Br)N1CCN(c2ccccc2)CC1 [4-Phenyl-piperazine-1-carboxylic acid (1-bromo-naphthalen-2-yl)-amide]
7.09 µM | O=C(Oc1cc(Cl)c(Cl)cc1Cl)N1CCC(Cc2ccccc2)CC1 [4-Benzyl-piperidine-1-carboxylic acid 2,4,5-trichloro-phenyl ester]
> 10 µM | O=C(Oc1ccc2cc(Br)ccc2c1)N1CCOCC1 [Morpholine-4-carboxylic acid 6-bromo-naphthalen-2-yl ester]
> 30 µM | CC1CCN(C(=O)Oc2cc3ccccc3cn2)CC1 [4-Methyl-piperidine-1-carboxylic acid isoquinolin-3-yl ester]
> 10 µM | O=C(Nc1ccc2ccccc2c1Cl)N1CCCCC1 [Piperidine-1-carboxylic acid (1-chloro-naphthalen-2-yl)-amide]
> 30 µM | CC(=O)c1c(OC(=O)N2CCCCC2C)ccc2ccccc12 (centres unmarked) [2-Methyl-piperidine-1-carboxylic acid 1-acetyl-naphthalen-2-yl ester]
> 10 µM | CC1CC(C)CN(C(=O)Nc2ccc3ccccc3c2Br)C1 (centres unmarked) [3,5-Dimethyl-piperidine-1-carboxylic acid (1-bromo-naphthalen-2-yl)-amide]
11.2 µM | CC1CC(C)CN(C(=O)Oc2cc(Cl)c(Cl)cc2Cl)C1 (centres unmarked) [3,5-Dimethyl-piperidine-1-carboxylic acid 2,4,5-trichloro-phenyl ester]
> 30 µM | O=C(Oc1ccccc1Br)N1CCCCC1 [Piperidine-1-carboxylic acid 2-bromo-phenyl ester]
> 10 µM | CC1CC(C)CN(C(=O)Nc2ccc3ccccc3c2)C1 (centres unmarked) [3,5-Dimethyl-piperidine-1-carboxylic acid naphthalen-2-ylamide]

SMILES | EC50
O=C(NC1CCCCC1)Oc1ccccc1Br [Cyclohexyl-carbamic acid 2-bromo-phenyl ester] | > 30 µM
CCN(CC)C(=O)Oc1ccc2ccccc2c1Br [Diethyl-carbamic acid 1-bromo-naphthalen-2-yl ester] | 2 µM
O=C(NCC1CCCCC1)Oc1ccc2ccccc2c1Br [Cyclohexylmethyl-carbamic acid 1-bromo-naphthalen-2-yl ester] | > 30 µM
O=C(NCC1CCCCC1)Oc1ccc2cc(Br)ccc2c1Br [Cyclohexylmethyl-carbamic acid 1,6-dibromo-naphthalen-2-yl ester] | > 30 µM
